System: SARS-CoV-2
Test: Antiviral activity against SARS-CoV-2 Wuhan 5-2N variant infected in African green monkey Vero E6 cells measured 3 days post infection by WST-8 assay
Assay type: functional, organism-based
Conditions: Severe acute respiratory syndrome coronavirus 2, Wuhan 5-2N, Vero C1008, 72 h

CCc1c(C)c2cc3nc(cc4nc(cc5c(CC)c(C)c(cc1[nH]2)n5C)C(C)=C4CCC(=O)O)C(CCC(=O)O)=C3C
EC50: 1.16 nM

— ChEMBL document CHEMBL6127044, “An insight into G-quadruplexes: Identification and potential therapeutic targets in livestock viruses” (Eur J Med Chem, 2024)
